Test results from PubChem BioAssay (NCI).
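Each compound was tested at five concentrations against cells in 96-well plates for 48 hours. GI50 is the concentration that inhibits growth by half. At the TGI there is no net growth.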

Legend:
Assay in all cases: inhibition of tumour cell growth, NCI panel, 48 h
MALME-3M melanoma = system: MALME-3M melanoma
NCI-H522 lung = system: NCI-H522 lung
SF-268 CNS = system: SF-268 CNS
PC-3 prostate = system: PC-3 prostate
MOLT-4 leukemia = system: MOLT-4 leukemia
SR leukemia = system: SR leukemia
DU-145 prostate = system: DU-145 prostate
A549 NSCLC = system: A549 NSCLC
TK-10 renal = system: TK-10 renal
NCI-H226 lung = system: NCI-H226 lung

Compound	GI50 (MALME-3M melanoma)	TGI (MALME-3M melanoma)	GI50 (NCI-H522 lung)	TGI (NCI-H522 lung)	GI50 (SF-268 CNS)	TGI (SF-268 CNS)	GI50 (PC-3 prostate)	TGI (PC-3 prostate)	GI50 (MOLT-4 leukemia)	TGI (MOLT-4 leukemia)	GI50 (SR leukemia)	TGI (SR leukemia)	GI50 (DU-145 prostate)	TGI (DU-145 prostate)	GI50 (A549 NSCLC)	TGI (A549 NSCLC)	GI50 (TK-10 renal)	TGI (TK-10 renal)	GI50 (NCI-H226 lung)	TGI (NCI-H226 lung)
CC#CC(=O)N1CCC[C@H]1c1nc(-c2ccc(C(=O)Nc3ccccn3)cc2)c2c(N)nccn12	36.2 µM	> 100 µM	13.9 µM	> 100 µM	52.7 µM	> 100 µM	> 84.8 µM	> 100 µM	44.3 µM	> 100 µM	43.8 µM	> 100 µM	71 µM	> 100 µM	> 79.1 µM	> 100 µM	21.1 µM	> 100 µM	> 65.4 µM	> 100 µM
NC(CSC(c1ccccc1)(c1ccccc1)c1ccc2ccccc2c1)C(=O)O (centres undefined)	1.33 µM	25.4 µM	0.0392 µM	1.49 µM	0.0517 µM	13.7 µM	0.0628 µM	> 82.7 µM	0.29 µM	> 33.8 µM	0.0869 µM	> 40.5 µM	0.0986 µM	0.333 µM	0.095 µM	26.4 µM	0.524 µM	23.6 µM	9.27 µM	24.5 µM
FC(F)(F)c1ccc(-c2cnc(Br)nc2NC2CCCCCC2)cc1	> 100 µM	> 100 µM	28.3 µM	> 100 µM	> 100 µM	> 100 µM	35.4 µM	> 100 µM	41 µM	> 100 µM	30.5 µM	> 100 µM	> 100 µM	> 100 µM	86.5 µM	> 100 µM	> 100 µM	> 100 µM	24.6 µM	> 100 µM
C[C@H]1[C@@H](OCC(CO[C@H]2O[C@@H]3O[C@@]4(C)CC[C@H]5[C@H](C)CC[C@@H]([C@H]2C)[C@@]35OO4)=NOCC(=O)O)OC2O[C@@]3(C)CC[C@H]4[C@H](C)CC[C@@H]1[C@@]24OO3 (some centres undefined)	< 0.0245 µM	–	< 0.0151 µM	11.4 µM	< 0.0231 µM	0.889 µM	< 0.01 µM	13.5 µM	< 0.01 µM	8.61 µM	< 0.01 µM	11.8 µM	10.8 µM	28.1 µM	0.0865 µM	15.9 µM	0.0408 µM	4.57 µM	0.0375 µM	20.1 µM
C=C(C)[C@H]1CC/C(C)=C/CCC(C)C(=O)CC/C(CO)=C\[C@@H]1O (some centres undefined)	55.3 µM	> 100 µM	86.3 µM	> 100 µM	88.9 µM	> 100 µM	76.3 µM	> 100 µM	56.6 µM	> 100 µM	> 100 µM	> 100 µM	60.8 µM	> 100 µM	> 100 µM	> 100 µM	70.8 µM	> 100 µM	> 100 µM	> 100 µM
Cn1cnc([N+](=O)[O-])c1Sc1ncnc2c1ncn2C1OC(CO)C(O)C1O (centres undefined)	46.3 µM	> 100 µM	9.62 µM	> 100 µM	18.4 µM	> 100 µM	8.66 µM	> 100 µM	8.32 µM	64.5 µM	5.2 µM	> 100 µM	1.87 µM	> 100 µM	29.3 µM	> 100 µM	4.58 µM	> 100 µM	8.04 µM	> 100 µM
